Experiment [1] concerns Candida albicans. The experiment in a line: Antifungal activity against Candida albicans determined as diameter of inhibition zone at a concentration of 0.1 ug/disk; Not effective. Type of experiment: functional, organism-based.
For experiment [2], the system named is Fusarium solani. The experiment is described as follows: Antifungal activity against Fusarium solani determined as diameter of inhibition zone at a concentration of 1 ug/disk; Not effective. The experiment is classed as functional, organism-based.
The subject of experiment [3] is Saccharomyces cerevisiae. The experiment is described as follows: Antifungal activity against Saccharomyces cerevisiae determined as diameter of inhibition zone at a concentration of 0.1 ug/disk; Not effective. Type of experiment: functional, organism-based.
Experiment [4] has as its system Aspergillus fumigatus. The experiment in a line: Antifungal activity against Aspergillus fumigatus determined as diameter of inhibition zone at a concentration of 10 ug/disk. Type of experiment: functional.
In experiment [5] the test system is Penicillium citrinum. The experiment in a line: Antifungal activity against Penicillium citrium determined as diameter of inhibition zone at a concentration of 0.1 ug/disk; Not effective. Type of experiment: functional, organism-based.
The subject of experiment [6] is Saccharomyces cerevisiae. The experiment is described as follows: Antifungal activity against Saccharomyces cerevisiae determined as diameter of inhibition zone at a concentration of 10 ug/disk. Type of experiment: functional.
The test system of experiment [7] is Penicillium citrinum. The experiment is described as follows: Antifungal activity against Penicillium citrium determined as diameter of inhibition zone at a concentration of 1 ug/disk; Not effective. Type of experiment: functional, organism-based.
Experiment [8] has as its system Aspergillus fumigatus. The experiment in a line: Antifungal activity against Aspergillus fumigatus determined as diameter of inhibition zone at a concentration of 0.1 ug/disk; Slightly effective. Type of experiment: functional, organism-based.
Experiment [9] has as its system Aspergillus fumigatus. The experiment is described as follows: Antifungal activity against Aspergillus fumigatus determined as diameter of inhibition zone at a concentration of 1 ug/disk; Slightly effective. The experiment is classed as functional, organism-based.
For experiment [10], the system named is Fusarium solani. The experiment is described as follows: Antifungal activity against Fusarium solani determined as diameter of inhibition zone at a concentration of 10 ug/disk; Not effective. The experiment is classed as functional, organism-based.
Experiment [11] deals with Penicillium citrinum. The experiment is described as follows: Antifungal activity against Penicillium citrium determined as diameter of inhibition zone at a concentration of 10 ug/disk; Not effective. Type of experiment: functional, organism-based.
The subject of experiment [12] is Saccharomyces cerevisiae. The experiment is described as follows: Antifungal activity against Saccharomyces cerevisiae determined as diameter of inhibition zone at a concentration of 1 ug/disk; Slightly effective. The experiment is classed as functional, organism-based.
Experiment [13] relates to Fusarium solani. The experiment is described as follows: Antifungal activity against Fusarium solani determined as diameter of inhibition zone at a concentration of 0.1 ug/disk; Not effective. The experiment is classed as functional, organism-based.
Experiment [14] has as its system Candida albicans. The experiment in a line: Antifungal activity against Candida albicans determined as diameter of inhibition zone at a concentration of 10 ug/disk. The experiment is classed as functional.
For experiment [15], the system named is Candida albicans. The experiment in a line: Antifungal activity against Candida albicans determined as diameter of inhibition zone at a concentration of 1 ug/disk; Slightly effective. The experiment is classed as functional, organism-based.
Experiment [16] relates to Saccharomyces cerevisiae. The experiment in a line: Antifungal activity against Saccharomyces cerevisiae determined as diameter of inhibition zone at a concentration of 1 ug/disk; Not effective. Type of experiment: functional, organism-based.
For experiment [17], the system named is Candida albicans. The experiment is described as follows: Antifungal activity against Candida albicans determined as diameter of inhibition zone at a concentration of 1 ug/disk; Not effective. The experiment is classed as functional, organism-based.
Experiment [18] has as its system Saccharomyces cerevisiae. The experiment is described as follows: Antifungal activity against Saccharomyces cerevisiae determined as diameter of inhibition zone at a concentration of 0.1 ug/disk; Slightly effective. Type of experiment: functional, organism-based.
The subject of experiment [19] is Saccharomyces cerevisiae. The experiment in a line: Antifungal activity against Saccharomyces cerevisiae determined as diameter of inhibition zone at a concentration of 10 ug/disk (expt 1). The experiment is classed as functional, organism-based.
Experiment [20] deals with Candida albicans. The experiment is described as follows: Antifungal activity against Candida albicans determined as diameter of inhibition zone at a concentration of 10 ug/disk (expt 1). The experiment is classed as functional, organism-based.
Experiment [21] has as its system Saccharomyces cerevisiae. The experiment in a line: Antifungal activity against Saccharomyces cerevisiae determined as diameter of inhibition zone at a concentration of 10 ug/disk (expt 2). Type of experiment: functional, organism-based.
The subject of experiment [22] is Penicillium citrinum. The experiment is described as follows: Antifungal activity against Penicillium citrium determined as diameter of inhibition zone at a concentration of 10 ug/disk (expt 1). Type of experiment: functional, organism-based.
The test system of experiment [23] is Candida albicans. The experiment is described as follows: Antifungal activity against Candida albicans determined as diameter of inhibition zone at a concentration of 10 ug/disk (expt 2). Type of experiment: functional, organism-based.
The subject of experiment [24] is Penicillium citrinum. The experiment is described as follows: Antifungal activity against Penicillium citrium determined as diameter of inhibition zone at a concentration of 10 ug/disk (expt 2); Not effective. Type of experiment: functional, organism-based.
The test system of experiment [25] is Aspergillus fumigatus. The experiment is described as follows: Antifungal activity against Aspergillus fumigatus determined as diameter of inhibition zone at a concentration of 10 ug/disk (expt 2). Type of experiment: functional, organism-based.
In experiment [26] the test system is Aspergillus fumigatus. The experiment in a line: Antifungal activity against Aspergillus fumigatus determined as diameter of inhibition zone at a concentration of 10 ug/disk (expt 1). Type of experiment: functional, organism-based.

Active and inactive are the calls of the source. The calls are words filed in the database; no cut-off is given here.

As to `C=CC(C)(C)OC(C)(C)[C@H]1COc2ccc(/C=C/C(OC)=C(C)\C(=C/OC)C(=O)OC)cc2O1`, the “Diameter of inhibition zone” value in experiment [1], in [2], in experiment [3], in experiment [5], in experiment [7] and in [10] was “inactive” in each case. Moreover, the “Diameter of inhibition zone” value in [11] and in [13] was “inactive” in each case. Also, the Diameter of inhibition zone in [4] is 8 mm; in [6] it was 8 mm; in experiment [8] it was “Slightly effective”; in experiment [9] it was “Slightly effective”; in experiment [12] it was “Slightly effective”; in experiment [14] it was 8 mm. Further, the “Diameter of inhibition zone” value in experiment [15] was “Slightly effective”.
As to `C=CC(C)(C)OC(C)(C)[C@@H]1COc2ccc(/C=C/C(OC)=C(C)\C(=C/OC)C(=O)OC)cc2O1`, the “Diameter of inhibition zone” value in experiment [16], in experiment [1], in experiment [2], in [3], in [5] and in experiment [7] was “inactive” each time. The “Diameter of inhibition zone” value in experiment [17], in [11] and in [13] was “inactive” each time. Besides, the “Diameter of inhibition zone” value in experiment [8] is recorded as “Slightly effective”.
As for `C=CC(C)(C)O[C@H]1COc2ccc(/C=C/C(OC)=C(C)\C(=C\OC)C(=O)OC)cc2OC1(C)C`, the “Diameter of inhibition zone” value in experiment [1], in experiment [5], in experiment [7] and in experiment [13] was “inactive” in each case. Besides, the “Diameter of inhibition zone” value in [18] and in experiment [8] was “Slightly effective” throughout.
As to NYSTATIN, the Diameter of inhibition zone in experiment [19] came to 17 mm; in experiment [20], 16 mm; in experiment [21], 8 mm; in experiment [22], 10 mm; in [23], 10 mm; in experiment [25] it was 8 mm. This compound showed a Diameter of inhibition zone in [26] of 12 mm. Further, in experiment [24], the “Diameter of inhibition zone” value is “inactive”.

The record behind these values is ChEMBL document CHEMBL1133820, “Total synthesis and antifungal activity of 9-methoxystrobilurin L as the originally proposed 1,4-benzodioxan structure” (2001).
